Marks after values point to notes of the source that are not given here.
experiment: Measurement of LogP values by HPLC on reversed phase columns (EEC directive 79/831 Annex V.A8); type: physicochemical; conditions: not given
Procedure: [table] If more than one Log P value is available within the same method, all the values are given and separated by “+”. Calibration was done with straight-chain alkan2-ones (with 3 to 16 carbon atoms) with known Log P values (measurement of Log P values using retention times with linear interpolation between successive alkanones). Lambda-max-values were determined using UV-spectra from 200 nm to 400 nm and the peak values of the chromatographic signals.

LogP | SMILES
2.68^[a] | O=C(Cn1cncn1)c1ccc(Oc2ccc(Br)cc2)nc1C(F)F [VII.35]
4.10^[a] | CC(=O)c1ccc(Oc2ccc(Cl)c(Cl)c2)nc1Cl [V.11]
3.35^[a] | CC(C)c1ccc(Oc2ccc(C(C)(O)Cn3cncn3)c(C(F)(F)F)n2)cc1 (centres unmarked) [I.75]
2.80^[a] | O=C(Cn1cncn1)c1cnc(Oc2ccc(C(F)F)cc2)cc1C(F)(F)F [VII.29]
4.04^[a] | CC(=O)c1ccc(Oc2ccc(OC(F)(F)F)cc2)nc1C(F)(F)F [V.35]
3.19^[a] | CCC(O)(Cn1cncn1)c1ccc(Oc2ccc(Cl)cc2)nc1C(F)(F)F (centres unmarked) [I.103]
3.02^[a] | Cc1ccc(Oc2ccc(C(=O)Cn3cncn3)c(Cl)n2)cc1Cl [VII.11]
3.06^[a] | O=C(Cn1cncn1)c1cnc(Oc2ccc(Cl)cc2F)cc1C(F)(F)F [VII.30]
3.39^[a] | O=C(CCl)c1ccc(Oc2ccc(F)cc2)nc1Cl [VI.09]
5.00^[a] | FC(F)(F)c1ccc(Oc2ccc(C3(C4CC4)CO3)c(C(F)(F)F)n2)cc1 (centres unmarked) [IX.11]
3.62^[a] | CC(=O)c1cnc(Oc2ccc(C(F)F)cc2)cc1C(F)(F)F [V.04]
4.29^[a] | O=C(CBr)c1cnc(Oc2ccc(Cl)cc2)cc1C(F)(F)F [VI.14]
4.21^[a] | O=C(CCl)c1cnc(Oc2ccc(C(F)(F)F)cc2)cc1C(F)(F)F [VI.22]
2.21^[a] | O=C(Cn1cncn1)c1ccc(Oc2ccccc2)nc1Cl [VII.06]
3.80^[a] | OC(Cn1cncn1)(c1ccc(Oc2ccc(S(F)(F)(F)(F)F)cc2)nc1C(F)(F)F)C1CC1 (centres unmarked) [I.97]
3.15^[a] | CC(O)(Cn1cncn1)c1ccc(Oc2ccc(Cl)cc2F)nc1C(F)(F)F (centres unmarked) [I.89]
2.78^[a] | OC(Cn1cncn1)c1ccc(Oc2ccc(Cl)cc2F)nc1C(F)(F)F (centres unmarked) [I.70]
3.85^[a] | CC(=O)c1ccc(Oc2ccc(Br)cc2)nc1C(F)(F)F [V.20]
3.32^[a] | OC(Cn1cncn1)(c1ccc(Oc2ccc(Cl)cc2)nc1C(F)(F)F)C1CC1 (centres unmarked) [I.80]
4.37^[a] | O=C(c1ccc(Oc2ccc(C(F)(F)F)cc2)nc1C(F)(F)F)C1CC1 [V.39]
3.02^[a] | O=C(Cn1cncn1)c1cnc(Oc2ccc(Br)cc2)cc1C(F)(F)F [VII.27]
3.46^[a] | CC(=O)c1ccc(Oc2ccc(Br)cc2)nc1C(F)F [V.34]
3.27^[a] | O=C(Cn1cncn1)c1cnc(Oc2ccc(OC(F)(F)F)cc2)cc1C(F)(F)F [VII.26]
3.77^[a] | O=C(CCl)c1cnc(Oc2ccc(Cl)cc2)cc1Cl [VI.06]
3.11^[a] | CC(=O)c1cnc(Oc2ccc(Cl)cc2)cc1C(C)=O [V.19]
2.55^[a] | OC(Cn1cncn1)c1cnc(Oc2ccc(C(F)F)cc2)cc1C(F)(F)F (centres unmarked) [I.55]

LogP | SMILES
4.16^[a] | O=C(CCl)c1cnc(Oc2ccc(Br)cc2)cc1C(F)(F)F [VI.23]
3.04^[a] | O=C(Cn1cncn1)c1ccc(Oc2ccc(C(F)(F)F)cc2)nc1C(F)(F)F [VII.32]
3.51^[a] | CC(=O)c1cnc(Oc2ccc(Cl)cc2)cc1Cl [V.22]
2.82^[a] | OC(Cn1cncn1)c1ccc(Oc2ccc(Br)cc2)nc1C(F)(F)F (centres unmarked) [I.40]
4.32^[a] | CC(=O)c1cnc(Oc2ccc(S(F)(F)(F)(F)F)cc2)cc1C(F)(F)F [V.03]
2.48^[a] | OC(Cn1cncn1)c1cnc(Oc2ccc(Cl)cc2)cc1Cl (centres unmarked) [I.68]
3.33^[a] | C=CC(O)(Cn1cncn1)c1cnc(Oc2ccc(C(F)(F)F)cc2)cc1C(F)(F)F (centres unmarked) [I.69]
3.44^[a] | CC(C)c1ccc(Oc2ccc(C(=O)Cn3cncn3)c(C(F)(F)F)n2)cc1 [VII.34]
4.34^[a] | O=C(CBr)c1cnc(Oc2ccc(Br)cc2)cc1C(F)(F)F [VI.15]
3.21^[a] | O=Cc1ccc(Oc2ccc(C(=O)C3CC3)c(C(F)(F)F)n2)cc1 [V.42]
4.49^[a] | O=C(c1ccc(Oc2ccc(Br)cc2)nc1C(F)(F)F)C1CC1 [V.40]
2.59^[a] | OC(Cn1cncn1)c1cnc(Oc2ccc(Br)cc2)cc1C(F)F (centres unmarked) [I.63]
4.23^[a] | O=C(CBr)c1ccc(Oc2ccc(Br)cc2)nc1C(F)(F)F [VI.18]
3.78^[a] | O=C(CCl)c1ncc(Oc2ccc(Cl)cc2)nc1Cl [VI.10]
3.55^[a] | CCCC(O)(Cn1cncn1)c1ccc(Oc2ccc(Cl)cc2)nc1C(F)(F)F (centres unmarked) [I.100]
2.86^[a] | OC(Cn1cncn1)c1cnc(Oc2ccc(Cl)cc2F)cc1C(F)(F)F (centres unmarked) [I.57]
4.37^[a] | O=C(CCl)c1cnc(Oc2ccc(OC(F)(F)F)cc2)cc1C(F)(F)F [VI.21]
2.75^[a] | OC(Cn1cncn1)c1cnc(Oc2ccc(Br)cc2)cc1C(F)(F)F (centres unmarked) [I.48]
3.25^[a] | CC(O)(Cn1cncn1)c1ccc(Oc2ccc(S(F)(F)(F)(F)F)cc2)nc1C(F)(F)F (centres unmarked) [I.62]
2.32^[a] | COc1ccc(Oc2ccc(C(O)Cn3cncn3)c(Cl)n2)c(Cl)c1 (racemic) [I.30]
2.08^[a] | OC(Cn1cncn1)c1ccc(Oc2ccccc2F)nc1Cl (racemic) [I.19]
2.46^[a] | CC(O)(Cn1cncn1)c1ccc(Oc2ccc(Cl)cc2)nc1F (centres unmarked) [I.42]
2.49^[a] | OC(Cn1cncn1)c1ccc(Oc2ccc(C(F)F)cc2)nc1C(F)(F)F (centres unmarked) [I.74]
4.20^[a] | CC(=O)c1cnc(Oc2ccc(OC(F)(F)F)cc2)cc1C(F)(F)F [V.15]
4.51^[a] | O=C(CCl)c1ccc(Oc2ccc(Cl)cc2)nc1OC(F)(F)F [VI.12]
3.87^[a] | CC(=O)c1ccc(Oc2ccc(Cl)cc2F)nc1C(F)(F)F [V.38]

LogP | SMILES
2.58^[a] | COc1ccc(Oc2ccc(C(=O)Cn3cncn3)c(Cl)n2)c(Cl)c1 [VII.19]
3.51^[a] | CC(=O)c1ncc(Oc2ccc(Cl)cc2)nc1Cl [V.23]
3.08^[a] | OC(Cn1cncn1)c1ccc(Oc2ccc(S(F)(F)(F)(F)F)cc2)nc1C(F)(F)F (centres unmarked) [I.60]
2.01^[a] | OC(Cn1cncn1)c1ncc(Oc2ccccc2)cc1Cl (racemic) [I.22]
2.73^[a] | CC(=O)c1ccc(Oc2ccc(Cl)cc2)nn1 [V.13]
3.80^[a] | O=C(c1ccc(Oc2ccc(C(F)F)cc2)nc1C(F)(F)F)C1CC1 [V.44]
3.11^[a] | OC(Cn1cncn1)c1ccc(Oc2ccc(OC(F)(F)F)c(Cl)c2)nc1Cl (racemic) [I.11]
2.23^[a] | OC(Cn1cncn1)c1ccc(Oc2ccc(Cl)cc2)nc1F (centres unmarked) [I.41]
2.88^[a] | CC(O)(Cn1cncn1)c1cnc(Oc2ccc(C(F)(F)F)cc2)cc1Cl (centres unmarked) [I.78]
2.74^[a] | O=C(Cn1cncn1)c1ccc(Oc2ccc(Cl)cc2F)nc1C(F)(F)F [VII.37]
2.50^[a] | OC(Cn1cncn1)c1ccc(Oc2ccc(Br)cc2)nc1C(F)F (centres unmarked) [I.73]
3.89^[a] | CC(=O)c1ccc(Oc2ccc(OC(F)(F)F)cc2)nc1Cl [V.28]
2.98^[a] | CC(O)(Cn1cncn1)c1ccc(Oc2ccc(OC(F)(F)F)cc2)nc1C(F)(F)F (centres unmarked) [I.95]
2.94^[a] | Cc1cc(Cl)ccc1Oc1ccc(C(C)(O)Cn2cncn2)c(Cl)n1 (racemic) [I.28]
4.19^[a] | O=C(CCl)c1ccc(Oc2ccc(C(F)(F)F)cc2)nc1C(F)(F)F [VI.28]
3.71^[a] | COc1ccc(Oc2ccc(C(=O)CCl)c(Cl)n2)c(Cl)c1 [VI.13]
3.13^[a] | OC(Cn1cncn1)(c1ccc(Oc2ccc(C(F)F)cc2)nc1C(F)(F)F)C1CC1 (centres unmarked) [I.93]
2.60^[a] | O=C(Cn1cncn1)c1cnc(Oc2ccc(Cl)cc2)cc1Cl [VII.38]
2.92^[a] | O=C(Cn1cncn1)c1cnc(Oc2ccc(C(F)(F)F)cc2)cc1Cl [VII.40]
4.18^[a] | O=C(CBr)c1ccc(Oc2c(F)cc(Cl)cc2F)nc1C(F)(F)F [VI.32]
4.29^[a] | O=C(CCl)c1ccc(Oc2ccc(S(F)(F)(F)(F)F)cc2)nc1C(F)(F)F [VI.29]
3.02^[a] | O=C(Cn1cncn1)c1ccc(Oc2ccc(Cl)cc2Cl)nc1Cl [VII.16]
3.69^[a] | O=C(CCl)c1ccc(Oc2ccc(Cl)cc2)nc1F [VI.20]
2.66^[a] | O=C(Cn1cncn1)c1ccc(Oc2ccc(Cl)cc2)nc1Cl [VII.09]

SMILES | LogP
OC(Cn1cncn1)c1cnc(Oc2ccc(S(F)(F)(F)(F)F)cc2)cc1C(F)(F)F (single isomer, unassigned) [I.83] | 3.11^[a]
CC(O)(Cn1cncn1)c1ccc(Oc2ccc(Br)cc2)nc1C(F)(F)F (single isomer, unassigned) [I.101] | 2.94^[a]
OC(Cn1cncn1)(c1ccc(Oc2ccc(Br)cc2)nc1C(F)(F)F)C1CC1 (racemic) [I.81] | 3.70^[a]
CC(O)(Cn1cncn1)c1ccc(Oc2ccc(Br)cc2)nc1C(F)(F)F (racemic) [I.59] | 2.94^[a]
OC(Cn1cncn1)c1ccc(Oc2ccc(C(F)(F)F)cc2)nc1C(F)(F)F (single isomer, unassigned) [I.72] | 2.86^[a]
OC(Cn1cncn1)(c1ccc(Oc2ccc(Br)cc2)nc1C(F)(F)F)C1CC1 (single isomer, unassigned) [I.99] | 3.41^[a]
OC(Cn1cncn1)c1ccc(Oc2ccc(C(F)(F)F)cc2)nc1C(F)(F)F (centres unmarked) [I.61] | 2.84^[a]

same assay, conditions: reversed phase HPLC column, method [a]: LC-UV, acidic range, 0.1% formic acid in water and acetonitrile as eluent

chromatographic logP | SMILES
3.89 | CC(=O)c1cnc(Oc2ccc(Cl)cc2)cc1C(F)(F)F [V.02, 1-[6-(4-chlorophenoxy)-4-(trifluoromethyl)-3-pyridyl]ethanone]
4.8 | FC(F)(F)c1nc(Oc2ccc(Cl)cc2)ccc1C1(C2CC2)CO1 (centres unmarked) [IX.07, 6-(4-chlorophenoxy)-3-(2-cyclopropyloxiran-2-yl)-2-(trifluoromethyl)pyridine]

same assay, conditions: reversed phase HPLC column, method [a]; compounds of formula (VI), Table 3

chromatographic logP | SMILES
4.01 | O=C(CCl)c1ccc(Oc2ccc(Cl)cc2)nc1C(F)(F)F [VI.01, 2-chloro-1-[6-(4-chlorophenoxy)-2-(trifluoromethyl)-3-pyridyl]ethanone]

Source: US10485236B2, “Triazole derivatives, intermediates thereof and their use as fungicides” (Bayer CropScience Aktiengesellschaft, priority 2015, dated 2019)
